In patent publication US10980866B2, “Alpha-1 anti-trypsin for treating liver diseases” (Hadasit Medical Research Services and Development Ltd., priority 2014, dated 2021):
Entries after “also recorded” stand apart in the source; their conditions may differ.

Legend:
[1] = system: ConA-induced hepatitis mouse model; test: Concanavalin A-induced hepatitis model, liver histology score (H&E); format: in vivo, mice (C57BL/6); settings: 15 hours following ConA; for Infiltrating leukocytes (%) / Lymphocyte adhesion (%) / Necrotic lesions (%): histological score, mean ± SD, AAT 0.35 mg/mouse IP, Dexamethasone 0.35 mg/mouse
Method: (§1) Animals—Male C57BL/6 mice (11-12 weeks old) were obtained from Harlan Laboratories (Jerusalem, Israel) and were maintained in the Animal Core of the Hadassah-Hebrew University Medical School. The mice received standard laboratory food and water ad libitum and were housed in a 12-hour light/dark cycle. All animal experiments were performed according to the guidelines and with the approval of the Hebrew University-Hadassah Institutional Committee for the Care and Use of Laboratory Animals.
(§2) Concanavalin A-induced hepatitis model—Concanavalin A (ConA, MP Biomedicals, USA) was dissolved in a solution consisting of 50 mM Tris pH 7, 150 mM NaCl, and 4 mM CaCl2 and injected into the tail vein at a dose of 500 μg/mouse (15 mg/kg) in 250 μl. Mice were sacrificed 15 hours following ConA injection. Mice (n=5-6 mice per group) were administered orally or intraperitoneally (IP), as indicated, DDW (control); Dexamethasone (0.35 mg/mouse, control); or alpha-1 anti-trypsin (AAT, Sigma A-9024) at a dose of 0.2, 0.35, 1.0 or 2.0 mg per mouse, 2 hours prior ConA treatment.
Histology—Mice were sacrificed at the indicated times and their livers were harvested. Paraffin-embedded liver sections were prepared from and sliced into 4-5 μm-thick sections and stained with hematoxylin-eosin (H&E). The sections were scored according to the extent of liver damage using a previously described method^13, 14 with the following parameters: lymphocyte adhesion to hepatic and portal veins and sinusoids, the number of infiltrating leukocytes into the liver parenchyma, and the number of necrotic lesions (all per 10× high-power field).

[2] = target: 1-AZT, a misfolded but functionally active mutant of α1-antitrypsin (Homo sapiens, UniProt P01009, E366K); settings: model cell culture system; cited from earlier work
[3] = system: ConA-induced hepatitis mouse model; test: Concanavalin A-induced hepatitis model, serum liver enzymes (ALT, AST); format: in vivo, mice (C57BL/6)
Method: as §1, §2
(§3) Assessment of Liver toxicity—Serum was obtained from individual mice at the indicated times and the levels of aspartate aminotransferase (AST) and alanine aminotransferase (ALT) were determined using a standard automated analyzer.

[4] = system: ConA-induced hepatitis mouse model; test: Concanavalin A-induced hepatitis model, serum IFN-γ by ELISA; format: in vivo, mice (C57BL/6); settings: 15 hours following ConA
Method: as §1, §2
Cytokine measurement—Serum IFN-γ levels were measured at the indicated times in each animal using a commercially available ELISA kit (Quantikine, R&D Systems, MN, USA) according to manufacturer's instructions.

[5] = system: APAP-mediated liver damage mouse model; test: Acetaminophen-mediated hepatotoxicity model, serum liver enzymes; format: in vivo, mice (C57BL/6); settings: 2 hours following APAP, 24 hours following APAP, vs control (DDW)
Method: as §1
Acetaminophen-mediated hepatotoxicity model—Acetaminophen (APAP)-mediated hepatotoxicity was induced in mice via oral administration of 4 mg APAP (Tiptipot, CST). Mice (n=5 mice per group) were administered IP DDW (control) or AAT at a dose of 0.25 or 0.5 mg per mouse, 2 hours following administration of APAP
as §3

[6] = system: high fat diet (HFD) mouse model; test: High fat diet (HFD) with or without methionine choline deficient diet (MCD) fatty liver model; format: in vivo, mice (C57Bl); settings: Example 3
Method: The effect of AAT on fatty liver disease is assessed by determining liver toxicity in a high fat diet (HFD) with or without methionine choline deficient diet (MCD) mouse model.
Blood is taken from the tail vein at the indicated time points and analyzed for:
Mice are sacrificed 14 weeks following beginning of treatment and analyzed for: • Weight • Epididymal fat weight (eq to visceral fat in humans) • MRI—to look at steatosis • ALT, AST • Serum for cytokines-what cytokines: IL2, 6, 4, 5, 12, IFN (gamma), TNF and TGF. IL-10, il-4, il-13, mcp1, • Adipokine—adiponectin which is anti-inflammatory adipokine and visfalatin • CBC including eosinophils • FACS for subsets of T cells • Assessment of eotaxin levels in the liver and in the adipose tissue by mRNA • Collect serum for Lipidomics to be conducted by OWL in Spain • Collect serum for mRNA of lymphocytes, to be performed in the USA by Ilumina sequencing machines • Liver fat quantification • Liver biopsy followed by histological evaluation: • 1. H&E staining • 2. Fat staining (IHC): Oil-R-O (frozen sections) • X2 non stained slides (paraffin embedded) • Snap freeze −80, ×3 samples (from each animal). • Assessment of fibrosis based on staining

[7] = AAT orally administered, 2 hours prior ConA, 15 hours following ConA

1-AZT, a misfolded but functionally active mutant of α1-antitrypsin, sequence (P01009 25-418 E366K): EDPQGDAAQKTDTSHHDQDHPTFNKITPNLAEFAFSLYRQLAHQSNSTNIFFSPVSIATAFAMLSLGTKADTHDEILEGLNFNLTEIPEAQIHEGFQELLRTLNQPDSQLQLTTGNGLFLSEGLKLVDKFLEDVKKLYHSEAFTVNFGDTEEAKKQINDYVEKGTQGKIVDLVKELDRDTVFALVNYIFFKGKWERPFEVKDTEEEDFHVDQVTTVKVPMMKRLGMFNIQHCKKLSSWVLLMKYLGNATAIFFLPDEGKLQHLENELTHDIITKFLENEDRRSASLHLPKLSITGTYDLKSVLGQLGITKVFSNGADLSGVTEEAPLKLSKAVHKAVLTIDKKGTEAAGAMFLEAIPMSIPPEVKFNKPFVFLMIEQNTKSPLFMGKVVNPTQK

Molecule | Infiltrating leukocytes (%) [1] [%] | Lymphocyte adhesion (%) [1] [%] | Necrotic lesions (%) [1] [%] | secretion of 1-AZT [2] | serum levels of the ALT liver enzyme ([3]; AAT 0.35 mg per mouse IP, 2 hours prior ConA, 15 hours following ConA, p<0.005) | mice developing severe disease (severe hepatitis, serum ALT more than 1000 IU) ([3]; AAT 0.35 mg per mouse, compared to 100% in control (DDW) group, p<0.005) [%] | serum levels of the ALT liver enzyme ([3]; AAT 1 mg per mouse IP, 2 hours prior ConA, 15 hours following ConA, p<0.005) | ALT serum levels ([3]; AAT 2 mg per mouse IP, 2 hours prior ConA, 15 hours following ConA) | AST levels ([3]; AAT IP, 2 hours prior ConA, 15 hours following ConA (FIG. 2)) | number of mice developing severe disease (serum ALT more than 1000 IU) ([3]; AAT at all doses tested) | ALT levels [3, 7] | AST levels [3, 7] | overall effect on the ConA-induced hepatitis model ([3]; IP administration of AAT) | serum IFNγ levels ([4]; AAT 1.0 mg per mouse IP, p<0.005) | serum IFNγ levels ([4]; AAT high dose 2.0 mg per mouse) | serum IFNγ levels ([4]; AAT low dose 0.35 mg per mouse) | number of infiltrating leukocytes into the liver parenchyma (in words) ([1]; AAT 0.35 mg per mouse IP) | serum levels of the AST liver enzyme ([5]; AAT 0.25 mg per mouse IP) | serum levels of the AST liver enzyme ([5]; AAT 0.5 mg per mouse IP) | symptoms of fatty liver disease [6]
C[C@@H]1C[C@H]2[C@@H]3CCC4=CC(=O)C=C[C@]4(C)[C@@]3(F)[C@@H](O)C[C@]2(C)[C@@]1(O)C(=O)CO [Dexamethasone, reference compound] | 0.58 ± 2.5 | 0.58 ± 2.5 | 0 |  |  |  |  |  |  |  |  |  |  |  |  |  |  |  |  | 
O=C(O)CCCc1ccccc1 [PBA, 4-phenylbutyric acid] |  |  |  | marked increase |  |  |  |  |  |  |  |  |  |  |  |  |  |  |  | 
alpha-1 anti-trypsin [AAT] | 2.45 ± 8.33 | 2.8 ± 11.89 | 1 ± 1.67 |  | Statistically significant reduction | 50 | Statistically significant reduction | no effect | corresponded to the ALT levels | reduced the number of mice developing severe disease | no effect | no effect | dose-dependent beneficial effect | significant reduction | no significant effect | no significant effect | significant improvement; also recorded: reduced leukocyte infiltration | decrease | decrease | ameliorated symptoms of fatty liver disease
